{"source": "patent US20080015181A1", "about": "“Pharmaceutical Compositions Comprising Droxidopa” (Chelsea Therapeutics, Inc., priority 2006, published 2008)", "key": {"plasma norepinephrine": {"test_system": "plasma norepinephrine", "assay": "Plasma norepinephrine concentration after dosing of droxidopa or droxidopa combinations in rats", "assay_type": "in vivo, male Sprague Dawley rats", "conditions": "2 hours post-dosing, rat", "procedure": "The pharmacokinetic properties of droxidopa combinations according to the invention were evaluated in male Sprague Dawley rats. Four test groups with four rats in each group were established. Group 1 was administered droxidopa alone as a baseline group. Group 2 was administered droxidopa in combination with the COMT inhibitor entacapone. Group 3 was administered droxidopa in combination with the cholinesterase inhibitor pyridostigmine. Group 4 was administered droxidopa in combination with the MAOI nialamide. For each group, the droxidopa or droxidopa combination was formulated with a vehicle formed of a water solution containing 1% carboxymethylcellulose with 0.2% TWEEN® 80 emulsifier. […] The amounts of entacapone, pyridostigmine, and nialamide used in formulations 2-7 were provided as “low” doses and “high” doses based upon disclosure in the literature of generally accepted dosage ranges for their respective known indications.\nRats in each group were given a single gavage dose of droxidopa alone or the droxidopa combination, the time of dosing being recorded as time=0. Dosing was based upon the weight of the subject and was adjusted to provide all test subjects a droxidopa dose of approximately 100 mg per kg of body weight. Blood samples (approximately 100 μL) were collected at approximately 5, 15, and 30 minutes, and at approximately 1, 2, 4, 8, and 24 hours after dosing. […]"}, "MAO-A than MAO-B": {"test_system": "MAO-A than MAO-B", "conditions": "known; cited from earlier work"}, "[1]": {"conditions": "compound co-administered with droxidopa, relative to droxidopa alone; rat", "procedure": "The pharmacokinetic properties of droxidopa combinations according to the invention were evaluated in male Sprague Dawley rats. Four test groups with four rats in each group were established. Group 1 was administered droxidopa alone as a baseline group. Group 2 was administered droxidopa in combination with the COMT inhibitor entacapone. Group 3 was administered droxidopa in combination with the cholinesterase inhibitor pyridostigmine. Group 4 was administered droxidopa in combination with the MAOI nialamide. For each group, the droxidopa or droxidopa combination was formulated with a vehicle formed of a water solution containing 1% carboxymethylcellulose with 0.2% TWEEN® 80 emulsifier.\nRats in each group were given a single gavage dose of droxidopa alone or the droxidopa combination, the time of dosing being recorded as time=0. Dosing was based upon the weight of the subject and was adjusted to provide all test subjects a droxidopa dose of approximately 100 mg per kg of body weight. […]\nAs a standard, plasma droxidopa concentration in rats administered the drug vehicle with no droxidopa or droxidopa combinations present was also evaluated, and no droxidopa was detected over a 24 hour period in plasma from the rats administered the vehicle alone. Likewise, no droxidopa was detected in any subjects prior to dosing of the droxidopa or droxidopa combinations. […]"}}}
{"molecule": "NC(C(=O)O)C(O)c1ccc(O)c(O)c1", "note": "(stereo not drawn) [droxidopa, threo-3-(3,4-dihydroxyphenyl)serine]", "values": [{"measurement": "increase in plasma norepinephrine concentration", "setting": "plasma norepinephrine; droxidopa alone versus vehicle alone", "value": "~5", "unit": "fold"}]}
{"molecule": "CCN(CC)C(=O)/C(C#N)=C/c1cc(O)c(O)c([N+](=O)[O-])c1", "note": "[entacapone, [(E)-2-cyano-N,N-diethyl-3-(3,4-dihydroxy-5-nitrophenyl)propenamide]]", "values": [{"measurement": "plasma norepinephrine concentration in relation to treatment with droxidopa alone (in words)", "setting": "plasma norepinephrine; compound combined with droxidopa", "value": "increased plasma norepinephrine concentration beyond the effect of droxidopa alone"}]}
{"molecule": "O=C(NCCN1CCOCC1)c1ccc(Cl)cc1", "note": "[moclobemide]", "values": [{"measurement": "selectivity for MAO-A than MAO-B", "setting": "MAO-A than MAO-B", "value": "approximately three times more selective for MAO-A than MAO-B"}]}
{"molecule": "CN(C)C(=O)Oc1ccc[n+](C)c1", "note": "[pyridostigmine, 3-dimethylcarbamoyloxy-1-methylpyridinium]", "values": [{"measurement": "effect on droxidopa half-life (in words)", "setting": "[1]", "value": "increase in droxidopa half-life"}]}
